Key:
Lolium multiflorum = test: Post-emergence treatment test in dry field; format: in vivo; settings: treatment amount 500 g/ha; foliar spray at first to second leaf stage; twenty days after treatment; 0 = no effect, 10 = complete death
Procedure: A plastic cup with a diameter of 8 cm and a depth of 6.5 cm was filled with commercially available soil. Seeds of Lolium multiflorum were sowed in the cup, covered with soil about 0.5 cm thick and then grown in a greenhouse. When the plants were grown in the first to second leaf stage, a diluted liquid formulation containing a prescribed amount of the compound I-a-2 was sprayed onto the whole plants uniformly. The diluted liquid formulation was prepared by dissolving a prescribed amount of the compound I-a-2 in a 2% solution of Tween 20 (polyoxyethylene sorbitan fatty acid ester, MP Biomedicals, Inc.) in dimethylformamide and then diluting the solution with deionized water. After the treatment, the plants were grown in a greenhouse. Twenty days after treatment, the controlling effect of the compound on Lolium multiflorum was visually evaluated. The effect was rated in 11 levels, from 0 to 10 (0 represents “no effect”; 10 represents “complete death”; and a state of the plant therebetween is rated in levels of 1 to 9).
The other compounds of the present invention, and Compound A described in J. Heterocycl. Chem., vol. 42, pp. 427-435 (2005) as a comparative example were similarly tested.

Apera spica-venti = test: Pre-emergence treatment test in dry field; format: in vivo; settings: treatment amount 500 g/ha; sprayed onto soil surface after sowing; three weeks after treatment; 0 = no effect, 10 = complete death
Procedure: A plastic container (32 cm×22 cm×8 cm in height) was filled with soil sterilized by steam. Seeds of Apera spica-venti were sowed in the container and covered with soil about 0.5 cm thick. Then, a diluted liquid formulation containing a prescribed amount of the compound I-a-1 was sprayed onto the soil surface uniformly. The diluted liquid formulation was prepared by the method similar to that in Test example 1. After the treatment, the plants were grown in a greenhouse. Three weeks after treatment, the controlling effect of the compound on Apera spica-venti was visually evaluated. The effect was rated in 11 levels, from 0 to 10 similarly to Test example 1.
The other compounds of the present invention and Compound A as a comparative example were similarly tested.

## Cc1ccccc1-c1c(O)cnn(C)c1=O [Compound A]
Lolium multiflorum
  controlling effect on Lolium multiflorum (visually evaluated, rated 0 to 10): 1
Apera spica-venti
  controlling effect on Apera spica-venti (visually evaluated, rated 0 to 10): 1
